Assay results published in patent publication US20240269139A1, “COMPOUNDS FOR TARGETED PROTEIN DEGRADATION OF KINASES” (DANA-FARBER CANCER INSTITUTE, INC., priority 2020, published 2024).
Read-outs that look alike come from different tables or passages of the source. Blank lines part the entries; values can stand above or below the molecule they belong to.

Experiments:
[1] = target: protein kinases (human kinome) (Homo sapiens, UniProt P42684); type: cell-based
[2] = target: T1, protein kinases (human kinome) (Homo sapiens, UniProt P29323); type: cell-based
T1 sequence (P29323 19-1055): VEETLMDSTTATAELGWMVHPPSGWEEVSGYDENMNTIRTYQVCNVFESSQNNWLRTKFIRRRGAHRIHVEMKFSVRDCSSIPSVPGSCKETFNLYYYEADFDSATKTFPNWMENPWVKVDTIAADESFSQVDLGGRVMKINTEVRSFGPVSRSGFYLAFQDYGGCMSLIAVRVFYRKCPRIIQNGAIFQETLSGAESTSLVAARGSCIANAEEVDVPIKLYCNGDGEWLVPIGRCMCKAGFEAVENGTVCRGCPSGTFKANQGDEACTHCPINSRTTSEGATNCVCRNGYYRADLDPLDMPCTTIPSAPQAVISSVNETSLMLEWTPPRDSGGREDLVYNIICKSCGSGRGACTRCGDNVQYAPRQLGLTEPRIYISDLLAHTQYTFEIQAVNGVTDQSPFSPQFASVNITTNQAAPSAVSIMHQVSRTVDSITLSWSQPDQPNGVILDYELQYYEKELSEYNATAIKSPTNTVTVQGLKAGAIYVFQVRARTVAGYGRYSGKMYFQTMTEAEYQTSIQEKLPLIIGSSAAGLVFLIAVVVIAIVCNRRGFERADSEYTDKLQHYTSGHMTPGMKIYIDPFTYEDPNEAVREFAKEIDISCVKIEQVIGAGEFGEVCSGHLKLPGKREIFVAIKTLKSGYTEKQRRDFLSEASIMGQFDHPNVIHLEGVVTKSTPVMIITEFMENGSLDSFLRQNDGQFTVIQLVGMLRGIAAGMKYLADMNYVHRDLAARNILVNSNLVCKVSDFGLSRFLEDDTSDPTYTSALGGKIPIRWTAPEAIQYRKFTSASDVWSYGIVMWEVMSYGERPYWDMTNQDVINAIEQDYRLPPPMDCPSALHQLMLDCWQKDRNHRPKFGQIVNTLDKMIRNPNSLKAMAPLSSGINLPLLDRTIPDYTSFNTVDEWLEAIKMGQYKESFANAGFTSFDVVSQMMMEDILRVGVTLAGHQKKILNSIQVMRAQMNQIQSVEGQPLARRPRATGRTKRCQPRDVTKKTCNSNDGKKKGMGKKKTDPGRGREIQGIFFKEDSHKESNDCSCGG

[3] = target: protein kinases (human kinome) (Homo sapiens, UniProt Q9H0K1); type: cell-based; details: experiment wp195
[4] = target: protein kinases (human kinome) (Homo sapiens, UniProt P29597); type: cell-based; details: experiment wp195
[5] = target: extended human kinome (kinase-like proteins) (Homo sapiens, UniProt Q16875); test: Whole cell quantitative proteomics: extended kinome hits; details: Accession Q16875; experiment wp068
[6] = target: protein kinases (human kinome) (Homo sapiens, UniProt Q96BR1); type: cell-based
[7] = target: T2, protein kinases (human kinome) (Homo sapiens, UniProt Q9UQ88); type: cell-based
T2 sequence (Q9UQ88 1-783): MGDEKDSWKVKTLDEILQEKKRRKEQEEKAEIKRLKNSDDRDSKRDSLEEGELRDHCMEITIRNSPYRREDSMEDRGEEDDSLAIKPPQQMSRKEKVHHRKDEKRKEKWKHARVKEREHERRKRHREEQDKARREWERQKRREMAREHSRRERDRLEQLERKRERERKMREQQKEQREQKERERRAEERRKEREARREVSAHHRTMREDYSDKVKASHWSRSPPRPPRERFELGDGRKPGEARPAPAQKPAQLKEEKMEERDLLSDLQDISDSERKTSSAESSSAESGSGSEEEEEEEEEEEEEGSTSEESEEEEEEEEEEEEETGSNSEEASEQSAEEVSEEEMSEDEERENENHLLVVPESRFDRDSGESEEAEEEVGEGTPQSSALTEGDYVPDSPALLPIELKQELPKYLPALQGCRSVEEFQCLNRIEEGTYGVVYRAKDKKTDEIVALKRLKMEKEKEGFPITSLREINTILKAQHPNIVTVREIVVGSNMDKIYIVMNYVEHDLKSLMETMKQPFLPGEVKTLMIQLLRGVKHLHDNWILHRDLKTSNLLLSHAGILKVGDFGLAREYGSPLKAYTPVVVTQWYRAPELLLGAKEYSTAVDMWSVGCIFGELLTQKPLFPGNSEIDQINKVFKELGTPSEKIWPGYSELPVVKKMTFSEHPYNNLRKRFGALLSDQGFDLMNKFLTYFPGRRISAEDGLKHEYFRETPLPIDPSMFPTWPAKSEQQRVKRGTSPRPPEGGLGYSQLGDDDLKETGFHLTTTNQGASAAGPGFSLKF

[8] = target: protein kinases (human kinome) (Homo sapiens, UniProt P48736); type: cell-based
[9] = target: protein kinases (human kinome) (Homo sapiens, UniProt P49840); type: cell-based; details: GSK3A P49840; experiment wp068
[10] = system: protein kinases (human kinome); type: cell-based; details: for kinases the bifunctional compound degrades: as stated for the structure in the embodiments; for Kinase hits: kinases significantly downregulated vs DMSO (fold change cutoff −1.25, P-value<0.01), ≤8 h, 0.1-5 μM degrader, 7 cell lines; for Total no. kinase hits: number of degraded kinases per library compound
[11] = system: protein kinases in MOLT-4 cells; test: Whole cell quantitative proteomics in MOLT-4 cells; details: MOLT-4, 1 μM, 5 h
Description: (§1) Whole cell multiplexed quantitative proteomics was employed to measure changes in abundance of the proteome in response to treatment with each of the kinase degrader molecules relative to DMSO (Table 1, Appendix I).
(§2) Cells were treated with DMSO (biological triplicate) or degrader at indicated dose and time and cells were harvested by centrifugation. […] Precipitated protein was resuspended in 4 M Urea, 50 mM HEPES pH 7.4, followed by dilution to 1 M urea with the addition of 200 mM EPPS, pH 8. Proteins were first digested with LysC (1:50: enzyme:protein) for 12 hours at room temperature. The LysC digestion was diluted to 0.5 M Urea with 200 mM EPPS pH 8 followed by digestion with trypsin (1:50; enzyme:protein) for 6 hours at 37° C. Tandem mass tag (TMT) reagents (Thermo Fisher Scientific) were dissolved in anhydrous acetonitrile (ACN) according to manufacturer's instructions. […] The 10, 11, or 16-plex labeling reactions were performed for 1.5 hours at room temperature and the reaction quenched by the addition of hydroxylamine to a final concentration of 0.3% for 15 minutes at room temperature. The sample channels were combined at a 1:1 ratio, desalted using C18 solid phase extraction cartridges (Waters®) and analyzed by LC-MS for channel ratio comparison. Samples were then combined using the adjusted volumes determined in the channel ratio analysis and dried down in a speed vacuum. The combined sample was then resuspended in 1% formic acid, and acidified (pH 2-3) before being subjected to desalting with C18 SPE (Sep-Pak®, Waters®). Samples were then offline fractionated into 96 fractions by high pH reverse-phase HPLC (Agilent® LC1260) through an aeris peptide xb-c18 column (Phenomenex®) with mobile phase A containing 5% acetonitrile and 10 mM NH4HCO3 in LC-MS grade H2O, and mobile phase B containing 90% acetonitrile and 10 mM NH4HCO3 in LC-MS grade H2O (both pH 8.0). The 96 resulting fractions were then pooled in a non-continuous manner into 24 fractions and desalted using C18 solid phase extraction plates (SOLA®, Thermo Fisher Scientific) followed by subsequent mass spectrometry analysis.
(§3) Data were collected using an Orbitrap Fusion™ Lumos™ mass spectrometer (Thermo Fisher Scientific, San Jose, CA, USA) coupled with a Proxeon EASY-nLC™ 1200 LC pump (Thermo Fisher Scientific) or an Orbitrap Eclipse™ Tribrid™ mass spectrometer (Thermo Fisher Scientific, San Jose, CA, USA) coupled with an UltiMate™ 3000 RSLCnano System. Peptides were separated on an EasySpray™ ES803a/ES803a.rev2 75 μm inner diameter microcapillary column (ThermoFisher Scientific).
(§4) Data dependent MS2 spectra were acquired in the ion trap with a normalized collision energy (NCE) set at 35%, AGC target set to 1.8×10^4 and a maximum injection time of 120 ms. MS3 scans were acquired in the Orbitrap with HCD collision energy set to 55%. AGC target set to 2×10^5, maximum injection time of 150 ms, resolution at 50,000 and with a maximum synchronous precursor selection (SPS) precursors set to 10.
(§5) Proteome Discoverer™ 2.1, 2.2 or 2.4 (Thermo Fisher Scientific) was used for .RAW file processing and controlling peptide and protein level false discovery rates, assembling proteins from peptides, and protein quantification from peptides.

[12] = target: protein kinases in MOLT-4 cells (Homo sapiens, UniProt P41240); test: Whole cell quantitative proteomics in MOLT-4 cells; details: compared with the library; MOLT-4, 1 μM, 5 h
Description: as §1, §2, §3, §4, §5

[13] = target: protein kinases in MOLT-4 cells (Homo sapiens, UniProt O14965); test: Whole cell quantitative proteomics in MOLT-4 cells; details: MOLT-4, 1 μM, 5 h; validated by immunoblotting
Description: as §1, §2, §3, §4, §5

MM1.S cells = test: CellTiter-Glo viability assay; type: cell-based, H. sapiens; details: MM.1S multiple myeloma cell line, 72 hours
Description: MM1.S (purchased from ATCC) was seeded in a 96-well microplate at 10,000 cells per […] well in RPMI-1(40 media supplemented with 10% FBS and incubated with compounds (final DMSO concentration at 0.1%). Relative cell viability was measured 72 hours after drug addition using CellTiter-Glo® (Promega) according to the manufacturer's protocol. Each analysis was performed in biological triplicate.

[14] = Experiment wp068, direction of change down
[15] = CLK1 P49759-3, experiment wp068

Chain of protein kinases (human kinome) (Homo sapiens, UniProt Q9H0K1) (Q9H0K1 whole entry): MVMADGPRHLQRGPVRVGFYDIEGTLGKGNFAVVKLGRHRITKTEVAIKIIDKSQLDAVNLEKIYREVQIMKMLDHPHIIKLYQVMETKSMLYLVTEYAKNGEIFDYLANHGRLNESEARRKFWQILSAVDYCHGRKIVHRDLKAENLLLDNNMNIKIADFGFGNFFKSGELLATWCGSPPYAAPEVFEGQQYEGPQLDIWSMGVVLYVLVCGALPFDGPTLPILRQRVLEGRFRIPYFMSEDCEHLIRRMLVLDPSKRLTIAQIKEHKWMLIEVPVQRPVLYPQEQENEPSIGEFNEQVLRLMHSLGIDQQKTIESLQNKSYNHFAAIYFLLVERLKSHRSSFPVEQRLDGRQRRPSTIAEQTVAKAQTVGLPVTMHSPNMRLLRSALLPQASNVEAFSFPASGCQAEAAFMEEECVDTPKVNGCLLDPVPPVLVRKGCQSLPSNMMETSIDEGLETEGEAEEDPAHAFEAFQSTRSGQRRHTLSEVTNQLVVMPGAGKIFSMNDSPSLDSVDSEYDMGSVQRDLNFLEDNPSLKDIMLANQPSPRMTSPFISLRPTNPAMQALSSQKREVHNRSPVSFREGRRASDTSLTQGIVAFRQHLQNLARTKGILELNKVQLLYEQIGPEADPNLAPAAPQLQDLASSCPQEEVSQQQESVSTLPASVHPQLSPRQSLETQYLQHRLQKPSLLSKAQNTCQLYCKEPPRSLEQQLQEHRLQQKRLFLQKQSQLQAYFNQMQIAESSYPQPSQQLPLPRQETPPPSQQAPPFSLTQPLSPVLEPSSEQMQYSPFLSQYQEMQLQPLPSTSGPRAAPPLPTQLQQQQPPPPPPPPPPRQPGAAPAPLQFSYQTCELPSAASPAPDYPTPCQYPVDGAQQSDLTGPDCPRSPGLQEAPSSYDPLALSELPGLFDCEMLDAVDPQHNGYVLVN
Chain of protein kinases (human kinome) (Homo sapiens, UniProt P48736) (P48736 whole entry): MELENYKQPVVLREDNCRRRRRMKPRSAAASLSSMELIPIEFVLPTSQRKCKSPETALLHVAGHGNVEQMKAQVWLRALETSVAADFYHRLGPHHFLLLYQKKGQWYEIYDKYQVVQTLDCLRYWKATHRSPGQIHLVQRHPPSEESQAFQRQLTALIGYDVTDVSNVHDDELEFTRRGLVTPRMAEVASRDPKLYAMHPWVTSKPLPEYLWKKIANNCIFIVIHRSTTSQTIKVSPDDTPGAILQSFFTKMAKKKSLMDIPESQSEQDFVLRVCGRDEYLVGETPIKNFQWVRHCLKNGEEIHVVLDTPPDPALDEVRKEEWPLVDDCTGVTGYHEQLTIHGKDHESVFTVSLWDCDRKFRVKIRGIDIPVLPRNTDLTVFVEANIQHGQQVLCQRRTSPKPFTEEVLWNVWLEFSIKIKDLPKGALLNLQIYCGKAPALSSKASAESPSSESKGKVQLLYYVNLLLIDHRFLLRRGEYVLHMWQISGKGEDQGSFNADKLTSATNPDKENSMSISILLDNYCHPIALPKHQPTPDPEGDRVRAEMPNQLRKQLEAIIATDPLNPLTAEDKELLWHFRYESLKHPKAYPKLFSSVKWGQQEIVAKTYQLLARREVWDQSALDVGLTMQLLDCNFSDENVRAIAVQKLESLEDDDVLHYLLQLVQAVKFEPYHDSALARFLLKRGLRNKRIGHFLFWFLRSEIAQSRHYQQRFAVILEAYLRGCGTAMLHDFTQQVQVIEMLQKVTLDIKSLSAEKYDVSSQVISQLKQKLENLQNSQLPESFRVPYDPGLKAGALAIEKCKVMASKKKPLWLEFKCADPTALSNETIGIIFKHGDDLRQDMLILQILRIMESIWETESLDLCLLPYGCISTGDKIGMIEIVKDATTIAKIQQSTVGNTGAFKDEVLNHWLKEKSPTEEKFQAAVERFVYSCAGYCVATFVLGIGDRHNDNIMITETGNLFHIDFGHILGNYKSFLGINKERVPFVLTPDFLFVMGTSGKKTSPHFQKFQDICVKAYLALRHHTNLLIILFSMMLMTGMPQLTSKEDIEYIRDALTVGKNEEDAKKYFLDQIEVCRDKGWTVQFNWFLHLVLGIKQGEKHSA
Chain of protein kinases (human kinome) (Homo sapiens, UniProt P49840) (P49840 whole entry): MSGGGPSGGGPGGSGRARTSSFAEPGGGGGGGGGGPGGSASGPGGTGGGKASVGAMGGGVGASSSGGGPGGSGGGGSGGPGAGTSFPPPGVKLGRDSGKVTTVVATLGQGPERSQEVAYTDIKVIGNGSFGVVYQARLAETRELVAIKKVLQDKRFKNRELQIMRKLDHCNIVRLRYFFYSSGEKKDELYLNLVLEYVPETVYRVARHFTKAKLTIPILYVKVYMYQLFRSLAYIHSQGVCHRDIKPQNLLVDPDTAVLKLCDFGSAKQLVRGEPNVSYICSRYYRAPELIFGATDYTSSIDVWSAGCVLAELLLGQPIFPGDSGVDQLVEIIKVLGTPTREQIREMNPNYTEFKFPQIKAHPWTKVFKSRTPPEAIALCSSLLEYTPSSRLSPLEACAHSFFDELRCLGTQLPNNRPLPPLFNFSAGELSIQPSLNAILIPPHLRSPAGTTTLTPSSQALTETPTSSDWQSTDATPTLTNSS
Chain of protein kinases (human kinome) (Homo sapiens, UniProt P42684) (P42684 whole entry): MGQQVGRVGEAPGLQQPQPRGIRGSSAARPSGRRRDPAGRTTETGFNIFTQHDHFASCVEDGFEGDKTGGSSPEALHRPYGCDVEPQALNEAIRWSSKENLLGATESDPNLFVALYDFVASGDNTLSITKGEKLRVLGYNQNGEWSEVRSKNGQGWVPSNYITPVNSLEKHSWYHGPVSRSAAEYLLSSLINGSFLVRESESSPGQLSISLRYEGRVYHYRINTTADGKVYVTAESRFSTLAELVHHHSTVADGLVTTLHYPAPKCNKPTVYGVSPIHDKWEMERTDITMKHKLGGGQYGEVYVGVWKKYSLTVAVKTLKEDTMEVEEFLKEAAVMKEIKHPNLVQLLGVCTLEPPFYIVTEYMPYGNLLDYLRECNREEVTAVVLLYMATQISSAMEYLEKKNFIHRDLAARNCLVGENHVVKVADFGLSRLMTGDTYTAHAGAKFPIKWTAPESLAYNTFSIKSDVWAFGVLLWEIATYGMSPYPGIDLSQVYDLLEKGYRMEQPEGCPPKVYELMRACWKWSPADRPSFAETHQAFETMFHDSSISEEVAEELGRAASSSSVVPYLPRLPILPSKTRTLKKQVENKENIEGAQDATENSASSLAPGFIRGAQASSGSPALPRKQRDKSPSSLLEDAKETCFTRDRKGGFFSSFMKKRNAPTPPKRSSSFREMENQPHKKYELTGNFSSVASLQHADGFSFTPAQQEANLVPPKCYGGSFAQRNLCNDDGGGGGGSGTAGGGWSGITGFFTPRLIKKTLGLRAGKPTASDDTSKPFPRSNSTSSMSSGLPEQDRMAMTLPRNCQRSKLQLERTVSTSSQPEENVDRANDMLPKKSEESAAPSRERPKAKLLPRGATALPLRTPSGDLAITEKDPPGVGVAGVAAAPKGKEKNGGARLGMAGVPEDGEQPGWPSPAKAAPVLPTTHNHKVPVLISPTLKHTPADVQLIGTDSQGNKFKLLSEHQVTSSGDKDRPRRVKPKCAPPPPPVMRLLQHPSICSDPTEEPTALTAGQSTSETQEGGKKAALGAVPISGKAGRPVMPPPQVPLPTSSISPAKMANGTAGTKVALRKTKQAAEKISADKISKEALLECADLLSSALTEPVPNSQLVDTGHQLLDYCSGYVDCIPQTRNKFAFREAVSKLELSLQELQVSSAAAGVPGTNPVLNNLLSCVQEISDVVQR
Chain of protein kinases (human kinome) (Homo sapiens, UniProt Q96BR1) (Q96BR1 whole entry): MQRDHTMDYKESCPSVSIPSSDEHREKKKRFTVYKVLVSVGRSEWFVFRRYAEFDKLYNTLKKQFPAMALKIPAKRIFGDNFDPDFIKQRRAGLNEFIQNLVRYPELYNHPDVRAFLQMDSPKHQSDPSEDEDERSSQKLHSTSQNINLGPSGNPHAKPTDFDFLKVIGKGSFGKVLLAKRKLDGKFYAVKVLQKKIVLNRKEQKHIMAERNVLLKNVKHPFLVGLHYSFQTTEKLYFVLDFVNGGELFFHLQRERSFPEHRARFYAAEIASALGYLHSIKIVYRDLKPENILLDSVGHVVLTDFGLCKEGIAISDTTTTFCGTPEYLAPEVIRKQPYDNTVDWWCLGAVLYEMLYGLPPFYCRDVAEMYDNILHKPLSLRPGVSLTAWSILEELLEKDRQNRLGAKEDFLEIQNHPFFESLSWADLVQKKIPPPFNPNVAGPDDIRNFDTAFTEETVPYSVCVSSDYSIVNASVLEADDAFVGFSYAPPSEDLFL
Chain of extended human kinome (kinase-like proteins) (Q16875 whole entry): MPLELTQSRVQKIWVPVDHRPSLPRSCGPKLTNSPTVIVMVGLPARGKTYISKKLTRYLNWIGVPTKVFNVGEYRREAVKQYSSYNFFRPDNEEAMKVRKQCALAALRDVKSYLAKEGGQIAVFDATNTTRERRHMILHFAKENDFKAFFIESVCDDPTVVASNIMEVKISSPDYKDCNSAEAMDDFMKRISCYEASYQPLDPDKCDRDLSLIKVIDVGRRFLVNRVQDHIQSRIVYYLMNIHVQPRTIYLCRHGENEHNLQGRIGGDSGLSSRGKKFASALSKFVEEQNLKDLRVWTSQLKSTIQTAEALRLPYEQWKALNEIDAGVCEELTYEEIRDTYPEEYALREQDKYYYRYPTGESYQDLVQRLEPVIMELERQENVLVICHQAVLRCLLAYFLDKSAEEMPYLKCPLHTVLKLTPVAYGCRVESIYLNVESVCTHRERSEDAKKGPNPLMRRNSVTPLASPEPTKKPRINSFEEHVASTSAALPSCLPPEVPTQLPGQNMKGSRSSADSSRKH

SMILES: Cc1ncsc1-c1ccc([C@H](C)NC(=O)[C@@H]2C[C@@H](O)CN2C(=O)[C@@H](NC(=O)CCCCCCc2ccc(Nc3ncc4c(n3)-c3ccccc3NC(=O)N4)cc2)C(C)(C)C)cc1 [JWG.148]
logFC ([1]; ABL2 (P42684) protein abundance, degrader vs DMSO, down): −0.516 | logFC ABL2 (P42684) ([1]; Experiment wp195): −0.516 | logFC ([2]; EPHB2 (P29323), experiment wp195): −0.3596 | logFC of EPHB2 (P29323) ([2]; Experiment wp195): −0.3596 | logFC of SIK2 ([3]; Accession Q9H0K1): −0.455 | logFC SIK2 (Q9H0K1) ([3]; direction of change down): −0.455 | logFC TYK2 (P29597) ([4]; direction of change down): −0.5187 | logFC TYK2 ([4]; protein TYK2 (P29597), down): −0.5187

SMILES: O=C1CCC(N2C(=O)c3cccc(NCCOCCOCCOCCOCCC(=O)Nc4cccc(CN5CCC(NC(=O)c6[nH]ncc6NC(=O)c6c(Cl)cccc6Cl)CC5)c4)c3C2=O)C(=O)N1 (stereo not drawn) [FMF.04.147.1]
logFC PFKFB3 [5]: −0.4462 | logFC SGK3 (Q96BR1-1) [6, 14]: −0.3389 | logFC ([6]; SGK3 (Q96BR1-1), experiment wp068): −0.3389 | logFC ([7]; CDK11A (Q9UQ88-1), experiment wp068): −0.7386 | logFC of CDK11A (Q9UQ88-1) ([7]; Experiment wp068): −0.7386 | logFC PIK3CG (P48736) [8, 14]: −0.3581 | logFC ([8]; PIK3CG (P48736), experiment wp068): −0.3581 | logFC [9]: −0.5346 | logFC GSK3A [9]: −0.5346 | logFC GSK3B ([10]; Accession P49841-2, experiment wp068, direction down): −0.6218 | logFC ([10]; CDK9 (P50750-2) protein abundance, degrader vs DMSO, down): −0.9142 | logFC [10, 15]: −0.6462 | logFC CLK1 [10, 15]: −0.6462 | logFC CDK9 (P50750-2) ([10]; Experiment wp068): −0.9142 | logFC GSK3B ([10]; GSK3B P49841-2, experiment wp068): −0.6218

degradation of CSK [12]: strongest degradation of CSK | Kinase hits [10]: ABL2, BLK, CSK, WEE1
SMILES: Cc1nc(Nc2ncc(C(=O)Nc3c(C)cccc3Cl)s2)cc(N2CCN(CC(=O)NCCCCNC(=O)COc3cccc4c3C(=O)N(C3CCC(=O)NC3=O)C4=O)CC2)n1 (stereo not drawn) [DB-3-291, N-(2-chloro-6-methylphenyl)-2-((6-(4-(2-((4-(2-((2-(2,6-dioxopiperidin-3-yl)-1,3-dioxoisoindolin-4-yl)oxy)acetamido)butyl)amino)-2-oxoethyl)piperazin-1-yl)-2-methylpyrimidin-4-yl)amino)thiazole-5-carboxamide]
selectivity among CSK degraders [11]: greatest selectivity | kinases the bifunctional compound degrades [10]: ABL2, BLK, CSK, and WEE1 | Total no. kinase hits [10]: 4

SMILES: COc1cc(Nc2ncc3c(n2)-c2ccc(Cl)cc2C(c2c(F)cccc2OC)=NC3)ccc1C(=O)NCCCOCCOCCOCCCNC(=O)COc1cccc2c1C(=O)N(C1CCC(=O)NC1=O)C2=O (stereo not drawn) [dAURK-4, -((9-chloro-7-(2-fluoro-6-methoxyphenyl)-5H-benzo[c]pyrimido[4,5-e]azepin-2-yl)amino)-N-(1-((2-(2,6-dioxopiperidin-3-yl)-1,3-dioxoisoindolin-4-yl)oxy)-2-oxo-7,10,13-trioxa-3-2174 azahexadecan-16-yl)-2-methoxybenzamide]
degradation of AURKA [13]: potent and selective degradation | antiproliferative effects (MM1.S cells): superior antiproliferative effects over parental inhibitor alisertib | kinases the bifunctional compound degrades [10]: AURKA and AURKB | Kinase hits [10]: AURKA, AURKB | Total no. kinase hits [10]: 2
